Experimental data reported in patent US20060148732A1, “Inhibition of NF-kappaB by triterpene compositions” (priority 2000, published 2006).

Key:
Type in all cases: cell-based, human
AKT in Jurkat cells = assay: Western blot of phosphorylated and total AKT; details: 2 μg/ml (F035 printed '2 ml'), 15 hr
Method: The effect of F035 on phosphorylation of AKT was analyzed as follows. Jurkat cells (5×10^6) were serum starved and exposed to F035 for 15 h and 2 h with wortmannin at 37° C. The cells were either induced with cd3XL (cd3 crosslink) or left uninduced for 10 min at 37° C. and lysed in AKT lysis buffer and the proteins were resolved on 8% SDS-PAGE gels and analyzed by western-ECL using phospho-specific AKT (Ser 473; New England Biolabs) and total AKT antibody. An assay of the effect of F035 on p70S6 kinase can be carried out similarly, but using a Phosphoplus p70S6 kinase antibody kit (New England Biolabs) for analysis of p70S6 kinase (Ser 411, thr421/ser424) phosphorylation. […] There was, however, no change in the expression of total AKT.
The expression of total and phosphorylated forms of AKT was determined by western blot analysis. Jurkat cells cultured in medium containing 0.5% FBS were treated with F035 and pure extracts D1 and G1 (2.0 μg/ml) for 15 h at 37° C. The cells were lysed in AKT Iysis buffer (20 mM Tris-HCl, 150 mM NaCI, 1 mM EDTA, 1 mM EGTA, 1% Triton X-100, 2.5 mM sodium pyrophosphate, 1 mM 8-glycerol phosphate, 1 mM Na3VO4, […], 1 mM PMSF pH 7.5). Cellular protein (40 μg) was resolved on 8% SDS-polyacrylamide gel and electrotransferred onto nitrocellulose membrane. Membranes were probed first with phosphospecific AKT (Ser 473) or AKT antibody followed by goat anti rabbit antibody conjugated to horseradish peroxidase. Proteins were detected by chemiluminescence (ECL, Amersham, Arlington Heights, Ill.).

[1] = test system: cytochrome c in Jurkat cells; assay: Cytochrome c release from mitochondria (western blot); details: 2 μg/ml
Method: Release of cytochrome c from mitochondria in response to treatment with F035 was detected by western blotting. Jurkat cells (10 ×10^6) were treated with 2 μg/ml of F035 for 4 and 6 h at 37° C. Cell pellets were washed in sucrose buffer (0.25M sucrose, 30 mM Tris, pH 7.7, 1 mM EDTA). To the cell pellets added 20 μl of sucrose buffer containing 1 μM PMSF, 1 μg/ml leupeptin, 1 μg/ml pepstatin and 1 μg/ml aprotinin. Cells were disrupted by douncing 120 times in a 0.3 ml Kontes douncer with a B pestle (Kontes Glass company). Cellular protein (60 μg) was resolved on a 15% SDS-polyacrylamide gel and electrotransferred onto a nitrocellulose membrane. The membrane was probed first with monoclonal anti-cytochrome c antibody (PharMingen) and then with anti-mouse antibody conjugated to horse radish peroxidase (HRPO). Protein bands were detected by chemiluminescence (ECL, Amersham).
Detection of Cytochrome c Release from Mitochondria. Release of cytochrome c from mitochondria was detected by Western blot analysis. Jurkat cells (1×10^7) were treated with F094, avicin D, or avicin G (2 μg/ml) at 37° C. After washing the cell pellets in sucrose buffer (0.25 M sucrose, 30 mM Tris, pH 7.7, 1 mM EDTA), they were resuspended in 20 μl of sucrose buffer containing 1 μM PMSF, 1 μg/ml leupeptin, 1 μg/ml pepstatin, and 1 μg/ml aprotinin. Cells were disrupted by douncing 120 times in a 0.3 ml Kontes douncer (Kontes Glass Company, Vineland, N.J.) with a B pestle. Cellular protein (50 μg) was resolved on a 15% SDS-polyacrylamide gel and electrotransferred onto a nitrocellulose membrane. The membrane was probed with monoclonal anti-cytochrome c antibody (Pharmingen, San Diego, Calif.) followed with anti-mouse antibody conjugated to horseradish peroxidase (HRPO). Protein bands were detected by chemiluminescence (ECL, Amersham).

Jurkat cells = assay: Mitochondrial membrane potential (DiOC6); details: 2 μg/ml
Method: Measurement of mitochondrial membrane potential (Δψm). Mitochondrial Δψm was measured as described by Zamzami, et al., 1995. After treatment with F094, avicin D, or avicin G (2 μg/ml) at 37° C, Jurkat cells were incubated with 80 nM of DiOC6 for 15 minutes at room temperature. They were then analyzed on a cytofluorometer (Facscalibar, excitation: 488 nm and emission: 552 nm).

SMILES | AKT phosphorylation (AKT in Jurkat cells) | total AKT protein (AKT in Jurkat cells) | increase in cytosolic cytochrome c ([1]; 30 minutes post-treatment) [fold] | increase in cytosolic cytochrome c ([1]; 4 hours post-treatment) [fold] | mitochondrial membrane potential (Δψm) (Jurkat cells; 16 hours) | mitochondrial membrane potential (Δψm) (Jurkat cells; up to 8 hours)
C=C[C@](C)(O)CC/C=C(\CO)C(=O)O[C@H]1[C@H](O)[C@@H](O)[C@H](O[C@@](C)(C=C)CC/C=C(\CO)C(=O)O[C@H]2C[C@]3(C(=O)O[C@@H]4O[C@H](CO)[C@@H](O)[C@H](O)[C@H]4O[C@@H]4O[C@@H](C)[C@H](O[C@@H]5O[C@@H](CO)[C@H](O)[C@H]5O)[C@@H](O[C@@H]5O[C@H](CO)[C@@H](O)[C@H](O)[C@H]5O)[C@H]4O)[C@H](O)C[C@]4(C)C(=CC[C@@H]5[C@@]6(C)CC[C@H](O[C@@H]7O[C@H](CO[C@@H]8O[C@H](C)[C@H](O)[C@H](O)[C@H]8O[C@@H]8OC[C@@H](O)[C@H](O)[C@H]8O)[C@@H](O)[C@H](O)[C@H]7NC(C)=O)C(C)(C)[C@@H]6CC[C@]54C)[C@@H]3CC2(C)C)O[C@@H]1C [Fraction D1] | inhibited AKT phosphorylation | inhibited | 1.5 | 3 | significant drop | did not produce any significant changes
C=C[C@](C)(O)CC/C=C(\C)C(=O)O[C@H]1[C@H](O)[C@@H](O)[C@H](O[C@@](C)(C=C)CC/C=C(\CO)C(=O)O[C@H]2C[C@]3(C(=O)O[C@@H]4O[C@H](CO)[C@@H](O)[C@H](O)[C@H]4O[C@@H]4O[C@@H](C)[C@H](O[C@@H]5O[C@@H](CO)[C@H](O)[C@H]5O)[C@@H](O[C@@H]5O[C@H](CO)[C@@H](O)[C@H](O)[C@H]5O)[C@H]4O)[C@H](O)C[C@]4(C)C(=CC[C@@H]5[C@@]6(C)CC[C@H](O[C@@H]7O[C@H](CO[C@@H]8O[C@H](C)[C@H](O)[C@H](O)[C@H]8O[C@@H]8OC[C@@H](O)[C@H](O)[C@H]8O)[C@@H](O)[C@H](O)[C@H]7NC(C)=O)C(C)(C)[C@@H]6CC[C@]54C)[C@@H]3CC2(C)C)O[C@@H]1C [Fraction G1] | inhibited AKT phosphorylation | inhibited | 3.5 | 8.4 | significant drop | did not produce any significant changes
